Source: ChEMBL document CHEMBL1201862, “PubChem BioAssay data set” (2004)
Several values for one entry are separate records, joined by “and”; a condition that tells them apart may be missing. Equal entries are not always repeated.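 Tested at 5 concentrations; 48 h exposure; 96-well plates; endpoints linearly interpolated, else capped at highest concentration. GI50 is the concentration that inhibits growth by half.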 Activity calls are given as the source filed them. Rule as the data show it: active = GI50 up to about 1.1 µM and inactive = higher.

Legend:
Assay in all cases: NCI-60 cell line screen, 48 h
[1] = test system: A549
[2] = test system: MDA-MB-435
[3] = test system: MDA-MB-231
[4] = test system: SK-MEL-5
[5] = test system: MCF7
[6] = test system: CCRF-CEM
[7] = test system: BT-549
[8] = test system: CAKI-1
[9] = test system: PC-3
[10] = test system: SNB-19
[11] = test system: HOP-92
[12] = test system: SK-MEL-28
[13] = test system: NCI-H226
[14] = test system: IGROV-1
[15] = test system: COLO 205
[16] = test system: OVCAR-8
[17] = test system: MDA-N
[18] = test system: RXF 393
[19] = test system: NCI-H460

Measured: GI50

C=CC[C@H]1O[Si](C(C)(C)C)(C(C)(C)C)[C@H](C)[C@H]1C
inactive: [1] > 100 µM | [2] > 100 µM | [3] > 100 µM | [4] > 100 µM | [5] > 100 µM | [6] > 100 µM | [7] > 100 µM | [8] > 100 µM | [9] > 100 µM | [10] 13.6 µM | [11] 24.3 µM | [12] > 100 µM | [13] > 100 µM | [14] > 100 µM | [15] > 100 µM | [16] > 100 µM | [17] > 100 µM

COC(=O)c1c(O)ccc2c1c1c(n2Cc2cc(OC)cc(OC)c2)C(=O)c2ccccc2C1
inactive: [1] 36.2 µM | [2] 10.9 µM | [3] 24 µM | [4] 34.3 µM | [5] 23.7 µM | [6] 18.2 µM | [7] 55.5 µM | [8] 21.1 µM | [9] 16.9 µM | [10] > 100 µM | [12] 16.1 µM | [13] 93.3 µM | [14] 30.3 µM | [15] 13.2 µM | [18] 19.7 µM | [16] 43.3 µM | [19] 31 µM | [17] 10.8 µM

COc1cc([C@H]2OC[C@H]3[C@@H]2CO[C@@H]3c2cc(OC)c3c(c2)OCO3)cc(OC)c1OC
inactive: [1] 46 µM and 55.2 µM | [2] 76 µM | [3] > 100 µM and 50.4 µM | [4] 19.2 µM and 18.6 µM | [5] 60.5 µM and 50.5 µM | [6] 45.9 µM and > 10 µM | [7] 31.6 µM and 52.1 µM | [8] 52.7 µM and 25 µM | [9] 46.1 µM and 51.6 µM | [10] 53.6 µM and 43.8 µM | [11] 46.9 µM and 60.7 µM | [12] > 100 µM | [13] 43.5 µM and 47.4 µM | [14] 92.3 µM and 66.4 µM | [15] 48.3 µM and 42.5 µM | [16] 31.3 µM and 49.3 µM | [19] 33.7 µM and 33.9 µM | [17] 65.2 µM

SCCSCCCSCCS
inactive: [1] > 100 µM | [2] > 100 µM | [3] 91.6 µM | [4] > 100 µM | [5] 70.8 µM | [6] 10.5 µM | [7] 53.3 µM | [9] 20 µM | [10] 71.9 µM | [12] > 100 µM | [14] 49.2 µM | [15] 86.9 µM | [16] > 100 µM | [19] 31.1 µM | [17] > 100 µM

N#CCc1nc(Cc2ccccc2)n[nH]1
inactive: [1] > 100 µM | [2] > 100 µM | [3] > 100 µM | [4] > 100 µM | [5] > 100 µM | [6] > 100 µM | [7] > 100 µM | [8] > 100 µM | [9] > 100 µM | [10] > 100 µM | [11] > 100 µM | [12] > 100 µM | [14] > 100 µM | [15] > 100 µM | [18] > 100 µM | [16] > 100 µM | [19] > 100 µM | [17] > 100 µM

C=C(O)c1ccccc1C#Cc1ccccc1C(=O)OC
inactive: [1] > 10 µM | [2] > 10 µM | [3] > 10 µM | [4] > 10 µM | [5] > 10 µM | [6] > 10 µM | [7] > 10 µM | [8] > 10 µM | [9] > 10 µM | [10] > 10 µM | [12] > 10 µM | [13] > 10 µM | [14] > 10 µM | [15] > 10 µM | [18] > 10 µM | [16] > 10 µM | [19] > 10 µM | [17] > 10 µM

COc1cc(C2S/C(=C/c3ccccc3)C(=O)N2c2cccc([N+](=O)[O-])c2)cc(OC)c1OC (configuration not stated)
inactive: [1] > 100 µM | [2] 17.5 µM | [3] 51.8 µM | [4] 67.3 µM | [5] 47.8 µM | [7] > 100 µM | [8] 48.8 µM | [9] > 100 µM | [10] > 100 µM | [11] 62.1 µM | [12] > 100 µM | [13] > 100 µM | [15] > 100 µM | [16] > 100 µM | [17] 22.9 µM

COC(=O)C(Cc1ccc(OC)cc1O)NC(=O)OC(C)(C)C (configuration not stated)
inactive: [1] > 100 µM | [2] > 100 µM | [3] > 100 µM | [4] 61.7 µM | [5] > 100 µM | [6] > 100 µM | [7] > 100 µM | [8] > 100 µM | [9] > 100 µM | [10] > 100 µM | [12] > 100 µM | [13] > 100 µM | [14] > 100 µM | [15] > 100 µM | [18] > 100 µM | [16] > 100 µM | [19] > 100 µM | [17] > 100 µM
